Source: paper PMC10144242, “Design, Synthesis, In Vitro, and In Silico Insights of 5-(Substituted benzylidene)-2-phenylthiazol-4(5H)-one Derivatives: A Novel Class of Anti-Melanogenic Compounds” (Molecules, 2023)

Key:
[1] = DPPH radical scavenging assay; settings: 1 mM, 30 min in the dark
Method: The 2,2-diphenyl-1-picrylhydrazyl (DPPH) radical scavenging capacity of the (Z)-BPT derivatives (1 mM) was investigated using L-ascorbic acid (1 mM, vitamin C) as a positive control. […] L-Ascorbic acid scavenged 97.1% of the DPPH radical, whereas (Z)-BPT derivative 1 with a 4-hydroxyl substituent on the β-phenyl ring scavenged 46.5% of the DPPH radical.
The antioxidant properties of (Z)-BPT derivatives 1–14 against DPPH (2,2-diphenyl-1-picrylhydrazyl) radicals were examined using a DPPH radical scavenging assay, as previously described with minor modifications. DPPH solution (180 µL, 0.2 mM) in methanol was mixed with a (Z)-BPT derivative solution (1–14, 20 µL, 10 mM) in dimethyl sulfoxide in each well of a 96-well plate, and the mixture was kept for 30 min in the dark at room temperature. The absorbance at 517 nm was measured using a VersaMax ™ microplate reader (Molecular Devices, Sunnyvale, CA, USA). The capacity of the derivatives to scavenge DPPH radicals was compared with that of L-ascorbic acid, which was used as the positive control. Each experiment was run independently in triplicates.
Figure 10 The radical scavenging effect of (Z)-BPT derivatives on DPPH. The DPPH radical scavenging activities of test samples (1 mM) were assayed after being left in the dark for 30 min. Distilled water and dimethyl sulfoxide (DMSO) were utilized as the solvents for the positive control L-ascorbic acid and the (Z)-BPT derivatives, respectively. Asterisks (***) represent a significant difference between L-ascorbic acid and the (Z)-BPT derivatives, and results are expressed as the mean ± standard error of three different experiments. *** p < 0.001.

mushroom tyrosinase [2] = biological target: T1, mushroom tyrosinase (Agaricus bisporus, UniProt C7FF04); assay: Kinetic studies on mushroom tyrosinase inhibition (Lineweaver–Burk and Dixon plots, L-DOPA substrate); type: biochemical; set-up: purchased Sigma-Aldrich
Method: As depicted in Figure 2, the mechanisms of tyrosinase inhibition were analyzed using Lineweaver–Burk plots. […] Each of the four straight lines produced at each inhibitor concentration converged to a single point on the y-axis. […] In contrast, in derivative 3, four straight lines generated at each inhibitor concentration intersected at a point in the second quadrant. According to the Lineweaver–Burk plot, as the inhibitor concentration increased, the Vmax value of 3 decreased, but the KM value increased.
To determine the Ki (inhibition constant) values of (Z)-BPT derivatives 1–3, Lineweaver–Burk plots for 1–3 were transformed into the corresponding Dixon plots (Figure 3). Each Dixon plot obtained from each Lineweaver–Burk plot produced four straight lines that intersected at one point in the second quadrant. The vertical lines from the merge point to the x-axis provide the Ki value of each (Z)-BPT derivative.
To determine the mode of action, Lineweaver–Burk plots of (Z)-BPT derivatives 1–3 were acquired. In brief, 10 µL of (Z)-BPT derivatives 1–3 (final concentrations:0, 3, 6, or 12 µM for 1; 0, 0.05, 0.1, or 0.2 µM for 2; 0, 2.5, 5, or 10 µM for 3) was added to a 96-well plate containing a substrate mixture (170 µL) consisting of an aqueous solution of L-dopa at final concentrations of 0.5, 1.0, 2.0, or 4.0 mM and 14.7 mM potassium phosphate buffer (pH 6.5), and a mushroom tyrosinase aqueous solution (20 µL, 20 units). Using a microplate reader (VersaMax^TM, Molecular Devices, Sunnyvale, CA, USA) to measure the increase in absorbance at a wavelength of 492 nm (ΔOD492/min), the initial rate of dopachrome synthesis in the reaction mixture was estimated. Using five different concentrations of L-dopa, Lineweaver–Burk plots (inverse of the response rate (1/V) vs. inverse of L-dopa concentration (1/(S)) were created. The convergence points of the four plot lines were used to define the mode of action of tyrosinase inhibition.
Figure 2 Lineweaver–Burk plots for the inhibition of mushroom tyrosinase activity by (Z)-BPT derivatives 1–3. […] Three independent experiments with five different concentrations (0.5, 1, 2, 4, and 8 mM) of an L-DOPA substrate were used to measure the augmented dopachrome optical density per minute at 492 nm. The data are shown as mean values of 1/V (an inverse of that optical density per minute). The (Z)-BPT derivatives were used at concentrations of 0 (filled circles), 3 (unfilled circles), 6 (filled triangles), and 12 µM (unfilled triangles) for 1; 0 (filled circles), 0.05 (unfilled circles), 0.1 (filled triangles), and 0.2 µM (unfilled triangles) for 2; and 0 (filled circles), 2.5 (unfilled circles), 5 (filled triangles), and 10 µM (unfilled triangles) for 3. Each experiment was run independently in triplicates.
Figure 3 Dixon plots for the inhibition of mushroom tyrosinase activity by (Z)-BPT derivatives 1–3. The Ki values of (Z)-BPT derivatives 1–3 were obtained from the absolute values of the x-coordinate where four straight lines converged at one point. Three independent experiments with four different concentrations of (Z)-BPT derivatives were conducted to measure the augmented dopachrome optical density per minute at 492 nm. The data are shown as the mean values of 1/V (an inverse of that optical density per minute). The (Z)-BPT derivatives were used at concentrations of 0, 3, 6, and 12 µM for 1; 0, 0.05, 0.1, and 0.2 µM for 2; and 0, 2.5, 5, and 10 µM for 3. The experiments were performed at four different concentrations (0.5, 1, 2, and 4 mM) of L-DOPA. Each experiment was run independently in triplicates.
Target sequence in this assay (C7FF04 1-392 limits assumed): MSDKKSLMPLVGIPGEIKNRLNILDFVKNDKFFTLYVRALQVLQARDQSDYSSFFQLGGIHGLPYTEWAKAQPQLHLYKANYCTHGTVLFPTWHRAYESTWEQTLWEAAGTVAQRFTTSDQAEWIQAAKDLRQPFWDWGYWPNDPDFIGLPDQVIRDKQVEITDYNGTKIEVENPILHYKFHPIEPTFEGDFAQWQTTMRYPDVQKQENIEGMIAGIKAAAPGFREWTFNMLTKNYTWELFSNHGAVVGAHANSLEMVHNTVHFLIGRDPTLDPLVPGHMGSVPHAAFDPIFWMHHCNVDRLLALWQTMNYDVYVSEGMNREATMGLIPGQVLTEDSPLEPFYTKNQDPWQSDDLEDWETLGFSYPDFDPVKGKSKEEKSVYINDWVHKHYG

B16F10 cells = assay: Cell viability / cytotoxicity, EZ-Cytox assay; type: cell-based, murine
Method: Before investigating their inhibitory effects on B16F10 cells, the viability of (Z)-BPT derivatives 1–3 was examined in B16F10 cells.
To determine the cell viability, six different concentrations (0, 1, 2, 5, 10, and 20 µM) of (Z)-BPT derivatives 1–3 were used, and the results were examined at two time points (48 and 72 h). […] Based on the cell viability results, the concentrations for cell-based assays related to the melanin production level and cellular tyrosinase activity were determined.
Cytotoxicity studies of (Z)-BPT derivatives 1–3 were performed on B16F10 melanoma cells using the previously established EZ-Cytox (EZ-3000, DoGenBio, Seoul, Republic of Korea) test, and cytotoxicity studies of (Z)-BPT derivatives 1–3 were conducted on B16F10 melanoma cells. Briefly, B16F10 cells were seeded in a 96-well plate at a density of 1 × 10^4 cells/well and cultivated at 37 °C for 24 h in a humid environment with 5% CO2. […] The cells were then incubated at 37 °C for 2 h after 10 µL of the EZ-Cytox solution had been added to each well. To determine the cell viability, the absorbance of each well was measured at 450 nm using a microplate reader (VersaMax^TM, Molecular Devices, Sunnyvale, CA, USA). Each assay was performed in triplicates.
Figure 6 Effects of (Z)-BPT derivatives 1–3 on cell viability in B16F10 cells. Cytotoxic effects were measured using an EZ-Cytox assay at six different concentrations (0, 1, 2, 5, 10, and 20 µM) of 1–3. (A) Derivative 1; (B) Derivative 2; (C) Derivative 3. *** p < 0.001 for non-treated cells vs. cells treated with 3.

mushroom tyrosinase [3] = biological target: T1, mushroom tyrosinase; assay: Inhibition assay against mushroom tyrosinase (L-tyrosine substrate); type: biochemical
Target sequence in this assay (C7FF04 1-392): as the sequence (C7FF04 1-392 limits assumed) above
Method: Therefore, the inhibitory effect of 14 synthetic (Z)-BPT derivatives on mushroom tyrosinase was investigated according to a previously described procedure [39].
Tyrosinase inhibition experiments were performed independently in triplicates. […] The IC50 values are presented as the mean ± standard error of the mean (SEM).
Minor modifications were made to the previous description of the inhibitory activity of mushroom tyrosinase [39]. […] After 30 min incubation at 37 °C, the amount of dopachrome produced in the assay mixture was measured at 492 nm using a microplate reader (VersaMax^TM, Molecular Devices, Sunnyvale, CA, USA) for determining the remaining tyrosinase activity. To obtain the IC50 values for each test sample, dose-dependent inhibition studies were performed in triplicates using three to five different concentrations of each test sample.

Structure (SMILES) | DPPH radical scavenging activity [1] | other results
COc1cc(/C=C2\SC(c3ccccc3)=NC2=O)ccc1O [Compound 4, (Z)-5-(4-Hydroxy-3-methoxybenzylidene)-2-phenylthiazol-4(5H)-one] | 81.0% | –
O=C1N=C(c2ccccc2)S/C1=C\c1cc(Br)c(O)c(Br)c1 [Compound 14, (Z)-5-(3,5-Dibromo-4-hydroxybenzylidene)-2-phenylthiazol-4(5H)-one] | 57.3% | –
O=C1N=C(c2ccccc2)S/C1=C\c1ccc(O)c(O)c1 [Compound 3, (Z)-5-(3,4-Dihydroxybenzylidene)-2-phenylthiazol-4(5H)-one] | 96.2% | Ki (mushroom tyrosinase [2]; Dixon plots, read-out: Ki (inhibition constant)): 4.8 µM; Inhibition type (mushroom tyrosinase [2]; Lineweaver–Burk plot): mixed-type inhibitor; concentrations showing cytotoxic effects (B16F10 cells; at 72 h (first statement of the sentence)): ≥ 5 µM; concentrations showing cytotoxic effects (B16F10 cells; at 72 h (second statement of the sentence)): ≥ 2 µM
CCOc1cc(/C=C2\SC(c3ccccc3)=NC2=O)ccc1O [Compound 5, (Z)-5-(3-Ethoxy-4-hydroxybenzylidene)-2-phenylthiazol-4(5H)-one] | 58.0% | –
COc1ccc(/C=C2\SC(c3ccccc3)=NC2=O)cc1O [Compound 6, (Z)-5-(3-Hydroxy-4-methoxybenzylidene)-2-phenylthiazol-4(5H)-one] | 25.1% | –
O=C1N=C(c2ccccc2)S/C1=C\c1ccc(O)c(Br)c1 [Compound 13, (Z)-5-(3-Bromo-4-hydroxybenzylidene)-2-phenylthiazol-4(5H)-one] | 14.8% | –
O=C1N=C(c2ccccc2)S/C1=C\c1ccccc1O [Compound 7, (Z)-5-(2-Hydroxybenzylidene)-2-phenylthiazol-4(5H)-one] | – | mushroom tyrosinase inhibitory activity (in words) (mushroom tyrosinase [3]): did not exhibit mushroom tyrosinase inhibitory activity
COc1cc(/C=C2\SC(c3ccccc3)=NC2=O)cc(OC)c1O [Compound 12, (Z)-5-(4-Hydroxy-3,5-dimethoxybenzylidene)-2-phenylthiazol-4(5H)-one] | moderate to strong DPPH radical scavenging activity | –
O=C1O[C@H]([C@@H](O)CO)C(O)=C1O [L-Ascorbic acid, L-ascorbic acid, reference compound] | 97.1% | –
